Laboratory results taken from patent US20260001937A1, “NOVEL RECOMBINANT FIBRINOGEN VARIANTS FOR FIBRIN SEALANTS FOR SURGICAL WOUND CARE” (Julius-Maximilians-Universität Würzburg, priority 2022, published 2026).

T1: His-rFbgH433R435
T1 chain 1: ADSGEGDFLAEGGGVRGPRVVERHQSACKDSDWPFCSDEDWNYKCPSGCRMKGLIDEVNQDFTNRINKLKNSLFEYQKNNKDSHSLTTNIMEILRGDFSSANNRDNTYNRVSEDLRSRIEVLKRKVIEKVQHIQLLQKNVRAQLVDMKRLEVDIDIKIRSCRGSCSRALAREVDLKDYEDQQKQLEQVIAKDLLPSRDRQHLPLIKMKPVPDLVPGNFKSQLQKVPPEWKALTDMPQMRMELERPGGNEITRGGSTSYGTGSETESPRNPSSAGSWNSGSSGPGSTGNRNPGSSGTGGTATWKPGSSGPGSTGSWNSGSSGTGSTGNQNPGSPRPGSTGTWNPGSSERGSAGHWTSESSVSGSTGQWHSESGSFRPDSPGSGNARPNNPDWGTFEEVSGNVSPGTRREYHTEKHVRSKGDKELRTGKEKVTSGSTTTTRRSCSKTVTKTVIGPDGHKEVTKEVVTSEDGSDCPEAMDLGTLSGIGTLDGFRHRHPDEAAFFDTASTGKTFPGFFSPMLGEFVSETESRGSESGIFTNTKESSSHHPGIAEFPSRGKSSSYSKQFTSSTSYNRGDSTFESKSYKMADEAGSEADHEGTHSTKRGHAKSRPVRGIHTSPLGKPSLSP
T1 chain 2: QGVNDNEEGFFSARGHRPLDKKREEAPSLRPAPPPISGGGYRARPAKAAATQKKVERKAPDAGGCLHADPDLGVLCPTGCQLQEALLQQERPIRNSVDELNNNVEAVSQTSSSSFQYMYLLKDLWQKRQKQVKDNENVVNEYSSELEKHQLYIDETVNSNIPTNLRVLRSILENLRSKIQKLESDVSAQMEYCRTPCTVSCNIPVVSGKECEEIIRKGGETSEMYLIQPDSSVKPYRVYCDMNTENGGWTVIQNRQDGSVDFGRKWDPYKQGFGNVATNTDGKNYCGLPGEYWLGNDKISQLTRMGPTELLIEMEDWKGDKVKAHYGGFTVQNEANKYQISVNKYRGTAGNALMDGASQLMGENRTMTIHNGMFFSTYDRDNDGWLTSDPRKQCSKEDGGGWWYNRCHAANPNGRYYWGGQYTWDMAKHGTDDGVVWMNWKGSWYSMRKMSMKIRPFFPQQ
T1 chain 3: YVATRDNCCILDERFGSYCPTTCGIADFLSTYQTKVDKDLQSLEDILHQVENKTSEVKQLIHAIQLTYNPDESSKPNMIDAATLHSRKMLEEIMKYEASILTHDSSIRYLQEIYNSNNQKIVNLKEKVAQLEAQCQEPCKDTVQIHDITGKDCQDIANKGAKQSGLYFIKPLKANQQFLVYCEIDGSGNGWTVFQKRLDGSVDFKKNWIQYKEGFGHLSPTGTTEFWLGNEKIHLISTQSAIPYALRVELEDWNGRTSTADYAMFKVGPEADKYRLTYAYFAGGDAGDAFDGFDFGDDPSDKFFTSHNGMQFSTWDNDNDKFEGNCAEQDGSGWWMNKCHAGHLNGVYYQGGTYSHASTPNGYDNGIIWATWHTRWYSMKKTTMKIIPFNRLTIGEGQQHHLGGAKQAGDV


How the values were obtained:
[1] = test system: ExpiCHO-S cells; settings: literature report (ref. 51); cited from earlier work
[2] = test system: ExpiCHO-S cell supernatant (degradation of fibrinogen α-chain); assay: Screening of inhibitors for Fbg degradation in ExpiCHO-S cell supernatant (SDS-PAGE); assay type: biochemical, Chinese hamster; settings: commercial human Fbg 3.3 mg/mL, 37 C, several days, Aprotinin 50 μg/mL, EDTA 4 mM, 1,10 Phenanthroline 1 mM, UK 370106 100 μM
Method: ExpiCHO-S cells were cultured to a density of 6×10^6 cells/mL. Afterwards, cells were centrifuged for 4 min at 1000 rpm at RT and the supernatant was collected. Commercially available fibrinogen (SigmaAldrich) was mixed with the supernatant to a final concentration of 3.3 mg/mL and a volume of 200 μl. The mixture incubated at 37° C. and 750 rpm and samples were taken at 0, 24 and 48 h. For the screening the different inhibitors were added to the mixture (final concentrations: PMSF: 1 mM; Aprotinin: 50 μg/mL; GM6001: 25 μM; EDTA: 4 mM; 1,10 Phenanthroline: 1 mM; UK 370106: 100 μM). As control fibrinogen was incubated in 10 mM Tris/HCl, 150 mM NaCl (pH 7.5) under the same conditions. For the visualization of fibrinogen degradation, 20 μL of the mixtures were analyzed using SDS-PAGE.
Commercially available human Fbg was incubated with the supernatant taken from the CHO cells used for the expression and incubated the protein at 37 C for several days.

[3] = target: T1, His-rFbgH433R435

Row | Molecule | effect of inhibitor addition during CHO cell expression on proteolytic degradation of the fibrinogen α-chain [1] | state of the Fbg α-chain after incubation with CHO cell supernatant plus inhibitor [2] | FXIIIa-catalyzed cross-linking of gamma-chains, reducing SDS-PAGE [3]
1 | aprotinin | did inhibit proteolytic degradation | truncated α-chain is also visible | 
2 | factor XIIIa (Fibrogammin, CSL Behring) (protein) GVNLQEFLNVTSVHLFKERWDTNKVDHHTDKYENNKLIVRRGQSFYVQIDFSRPYDPRRDLFRVEYVIGRYPQENKGTYIPVPIVSELQSGKWGAKIVMREDRSVRLSIQSSPKCIVGKFRMYVAVWTPYGVLRTSRNPETDTYILFNPWCEDDAVYLDNEKEREEYVLNDIGVIFYGEVNDIKTRSWSYGQFEDGILDTCLYVMDRAQMDLSGRGNPIKVSRVGSAMVNAKDDEGVLVGSWDNIYAYGVPPSAWTGSVDILLEYRSSENPVRYGQCWVFAGVFNTFLRCLGIPARIVTNYFSAHDNDANLQMDIFLEEDGNVNSKLTKDSVWNYHCWNEAWMTRPDLPVGFGGWQAVDSTPQENSDGMYRCGPASVQAIKHGHVCFQFDAPFVFAEVNSDLIYITAKKDGTHVVENVDATHIGKLIVTKQIGGDGMMDITDTYKFQEGQEEERLALETALMYGAKKPLNTEGVMKSRSNVDMDFEVENAVLGKDFKLSITFRNNSHNRYTITAYLSANITFYTGVPKAEFKKETFDVTLEPLSFKKEAVLIQAGEYMGQLLEQASLHFFVTARINETRDVLAKQKSTVLTIPEIIIKVRGTQVVGSDMTVTVEFTNPLKETLRNVWVHLDGPGVTRPMKKMFREIRPNSTVQWEEVCRPWVSGHRKLIASMSSDSLRHVYGELDVQIQRRPSM |  |  | the cross-linked γ-γ-dimer bands of rFbgH433R435 were visible after 5 min, indicating rapid lateral linkage
